Tests used:
Test in all cases: Weeding effect in post-emergence stage (greenhouse pot test)
Format in all cases: in vivo
[1] = tested on: Capsella bursa-pastoris; settings: 3 weeks after application, fresh weight control rate
Description: (§1) The activity level criteria for plant damage (i.e., growth control rate) are as follows:
(§2) Level 5: growth control rate is above 85%; • Level 4: growth control rate is greater than or equal to 60% and less than 85%; • Level 3: growth control rate is greater than or equal to 40% and less than 60%; • Level 2: growth control rate is greater than or equal to 20% and less than 40%; • Level 1: growth control rate is greater than or equal to 5% and less than 20%; • Level 0: growth control rate is less than 5%.
(§3) The above growth control rates are fresh weight control rates.
(§4) Experiment on weeding effect in post-emergence stage:
(§5) Monocotyledonous and dicotyledonous weed seeds (Descurainia sophia, Capsella bursa-pastoris, Abutilon theophrasti, Galium aparine, Stellaria media, Lithospermum arvense, Rorippa indica, Alopecurus aequalis, Alopecurus japonicus, Eleusine indica, Beckmannia syzigachne, Sclerochloa dura, Phleum paniculatum, Veronica didyma Tenore, Bromus japonicus, Aegilops tauschii, Phalaris arundinacea, Amaranthus retrojlexus, Chenopodiaceae, Commelina communis, Sonchus arvensis, convolvulus arvensis, Cirsium setosum, Solanum nigrum, Acalypha australis, Digitaria sanguinalis, Echinochloa crusgalli, Setaria viridis, Setaria glauca, Leptochloa chinensis, Monochoria vaginalis, Sagittaria trifolia, Scirpus juncoides, Cyperus rotundus, Cyperus iria, Cyperus difformis, Fimbristylis, Portulaca oleracea, Xanthium sibiricum, Pharbitis nil, Conyza japonica, etc.) and major crop seeds (wheat, corn, rice, soybean, cotton, oilseed rape, millet, sorghum, potato, sesame, ricinus, etc.) were placed in plastic pots filled with soil, then covered with 0.5-2 cm of soil, allowed to grow in a good greenhouse environment. After 2 weeks of sowing, the test plants were treated in the 2-3 leaf stage. The tested compounds of the present invention were respectively dissolved in acetone, then added with Tween 80 and 1.5 liter/ha of emulsifiable concentrate of methyl oleate as synergist, diluted with a certain amount of water to obtain a solution with a certain concentration, and sprayed with a spray tower onto the plants. After the application, the plants were cultured for 3 weeks in the greenhouse, and then the experimental results of the weeding were counted. The doses of the used compounds were 500, 250, 125, 60, 15, 7.5 g a.i./ha, and the averages were obtained by repeating for three times.

[2] = tested on: Conyza japonica; settings: post-emergence, 3 weeks after application, fresh weight control rate
Description: as §1, §2, §3, §4, §5

[3] = tested on: Alopecurus japonicus; settings: dose 15 g a.i./ha, 3 weeks after application, fresh weight control rate
Description: as §1, §2, §3, §4, §5

Compound | Activity level (growth control rate), Capsella bursa-pastoris ([1]; dose 15 g a.i./ha) | Activity level (growth control rate), Capsella bursa-pastoris ([1]; dose 125 g a.i./ha) | other results
COC(=O)C12CCCC1C(c1cc(-n3c(=O)cc(C(F)(F)F)n(C)c3=O)c(F)cc1C(F)(F)F)=NO2 (stereo not shown) [Compound 211] | 5 (Level 5: growth control rate is above 85%) | – | Activity level (growth control rate), Conyza japonica ([2]; dose 15 g a.i./ha): 5 (Level 5: growth control rate is above 85%)
COC(=O)C12CCCC1C(c1cc(-n3c(=O)cc(C(F)(F)F)n(C)c3=O)c(F)cc1C#N)=NO2 (stereo not shown) [Compound 212] | 5 (Level 5: growth control rate is above 85%) | – | Activity level (growth control rate), Conyza japonica ([2]; dose 15 g a.i./ha): 5 (Level 5: growth control rate is above 85%)
Cn1c(C(F)(F)F)cc(=O)n(-c2cc(C3=NOC4(C(=O)OCc5ccccc5F)CCCC34)c(Cl)cc2F)c1=O (stereo not shown) [Compound 264] | 5 (Level 5: growth control rate is above 85%) | – | Activity level (growth control rate), Conyza japonica ([2]; dose 15 g a.i./ha): 4 (Level 4: growth control rate is greater than or equal to 60% and less than 85%)
CCSC(=O)C12CCCC1C(c1cc(-n3c(=O)cc(C(F)(F)F)n(C)c3=O)c(F)cc1Cl)=NO2 (stereo not shown) [Compound 334] | 5 (Level 5: growth control rate is above 85%) | – | Activity level (growth control rate), Conyza japonica ([2]; dose 15 g a.i./ha): 4 (Level 4: growth control rate is greater than or equal to 60% and less than 85%)
COC(=O)C12CCCC1(O)C(c1cc(-n3c(=O)cc(C(F)(F)F)n(C)c3=O)c(F)cc1Cl)=NO2 (stereo not shown) [Compound 351] | – | – | Activity level (growth control rate), Conyza japonica ([2]; dose 15 g a.i./ha): 4 (Level 4: growth control rate is greater than or equal to 60% and less than 85%)
COC(=O)C12CCCCC1C(c1cc(-n3c(=O)cc(C(F)(F)F)n(C)c3=O)c(F)cc1Cl)=NO2 (stereo not shown) [Compound 370] | – | 5 (Level 5: growth control rate is above 85%) | –
COC(=O)C12CSCC1C(c1cc(-n3c(=O)cc(C(F)(F)F)n(C)c3=O)c(F)cc1Cl)=NO2 (stereo not shown) [Compound 374] | – | 5 (Level 5: growth control rate is above 85%) | Activity level (growth control rate), Conyza japonica ([2]; dose 125 g a.i./ha): 5 (Level 5: growth control rate is above 85%)
COC(=O)C12CCCC1C(c1cc(-n3c(=O)n(C)c(=S)n(C)c3=S)c(F)cc1Cl)=NO2 (stereo not shown) [Compound 395] | – | 5 (Level 5: growth control rate is above 85%) | –
COC(=O)C12CCCCCC1C(c1cc(-n3c(=O)cc(C(F)(F)F)n(C)c3=O)c(F)cc1Cl)=NO2 (stereo not shown) [Compound 435] | 5 (Level 5: growth control rate is above 85%) | – | –
COC(=O)C12CCCC1C(c1cc(-n3c(=O)cc(C(F)(F)F)n(C)c3=O)c(Cl)cc1Cl)=NO2 (stereo not shown) [Compound 440] | 5 (Level 5: growth control rate is above 85%) | – | –
COC(=O)C12CCC(O)C1C(c1cc(-n3c(=O)cc(C(F)(F)F)n(C)c3=O)c(F)cc1Cl)=NO2 (stereo not shown) [Compound 444] | 5 (Level 5: growth control rate is above 85%) | – | Activity level (growth control rate), Alopecurus japonicus [3]: 4 (Level 4: growth control rate is greater than or equal to 60% and less than 85%)
COC(=O)C12CC(C)CC1C(c1cc(-n3c(=O)cc(C(F)(F)F)n(C)c3=O)c(F)cc1Cl)=NO2 (stereo not shown) [Compound 456] | 5 (Level 5: growth control rate is above 85%) | – | Activity level (growth control rate), Conyza japonica ([2]; dose 15 g a.i./ha): 4 (Level 4: growth control rate is greater than or equal to 60% and less than 85%)
COC(=O)C1CC2C(c3cc(-n4c(=O)cc(C(F)(F)F)n(C)c4=O)c(F)cc3Cl)=NOC2(C(=O)OC)C1 (stereo not shown) [Compound 464] | 5 (Level 5: growth control rate is above 85%) | – | Activity level (growth control rate), Alopecurus japonicus [3]: 5 (Level 5: growth control rate is above 85%)
CCOC(=O)C12ON=C(c3cc(-n4c(=O)cc(C(F)(F)F)n(C)c4=O)c(F)cc3Cl)C1CCC2F (stereo not shown) [Compound 472] | 5 (Level 5: growth control rate is above 85%) | – | Activity level (growth control rate), Conyza japonica ([2]; dose 15 g a.i./ha): 4 (Level 4: growth control rate is greater than or equal to 60% and less than 85%)
CCOC(=O)C12ON=C(c3cc(-n4c(=O)cc(C(F)(F)F)n(C)c4=O)c(F)cc3Cl)C1CCC2=NO (stereo not shown) [Compound 491] | 5 (Level 5: growth control rate is above 85%) | – | –
COC(=O)C12CCCC1C(c1cc(-n3c(=O)cc(C(F)(F)F)n(C)c3=S)c(F)cc1Cl)=NO2 (stereo not shown) [Compound 497] | 5 (Level 5: growth control rate is above 85%) | – | –
COC(=O)C12CCCC1C(c1cc(N3C(=O)CC(=C(C)C)C3=O)c(F)cc1Cl)=NO2 (stereo not shown) [Compound 544] | – | 5 (Level 5: growth control rate is above 85%) | –

Compound | Activity level (growth control rate), Capsella bursa-pastoris ([1]; dose 15 g a.i./ha) | Activity level (growth control rate), Capsella bursa-pastoris ([1]; dose 125 g a.i./ha) | other results
COC(=O)C12CCCC1C(c1cc(N3C(=O)C4CCCCC4C3=O)c(F)cc1Cl)=NO2 (stereo not shown) [Compound 545] | – | 5 (Level 5: growth control rate is above 85%) | –
O=C1C2CC=CCC2C(=O)N1c1cc(C2=NOC3(C(=O)O)CCCC23)c(Cl)cc1F (stereo not shown) [Compound 546] | – | 5 (Level 5: growth control rate is above 85%) | –
COC(=O)C12CCCC1C(c1cc(N3C(=O)CC(C)CC3=O)c(F)cc1Cl)=NO2 (stereo not shown) [Compound 547] | – | 5 (Level 5: growth control rate is above 85%) | –
COC(=O)C12CCCC1C(c1cc(-n3c(=O)c4ccccc4n(C)c3=O)c(F)cc1Cl)=NO2 (stereo not shown) [Compound 551] | – | 5 (Level 5: growth control rate is above 85%) | –
CCCN1C(=O)C(=O)N(c2cc(C3=NOC4(C(=O)OC)CCCC34)c(Cl)cc2F)C1=S (stereo not shown) [Compound 552] | – | 5 (Level 5: growth control rate is above 85%) | –
CCCNC(=O)C12CCCC1C(c1cc(N3C(=O)C(=O)N(CCC)C3=S)c(F)cc1Cl)=NO2 (stereo not shown) [Compound 553] | 5 (Level 5: growth control rate is above 85%) | – | –
COC(=O)C12CCCC1C(c1cc(-n3nc4n(c3=O)CCCC4)c(F)cc1Cl)=NO2 (stereo not shown) [Compound 561] | – | 5 (Level 5: growth control rate is above 85%) | –
COC(=O)C12CCCC1C(c1cc(/N=c3\scc(C(F)(F)F)n3C)c(F)cc1Cl)=NO2 (stereo not shown) [Compound 574] | 5 (Level 5: growth control rate is above 85%) | – | Activity level (growth control rate), Conyza japonica ([2]; dose 15 g a.i./ha): 5 (Level 5: growth control rate is above 85%)
COC(=O)C12CCCC1C(c1cc(-c3nnc(C(F)(F)F)cc3O)c(F)cc1Cl)=NO2 (stereo not shown) [Compound 577] | – | 5 (Level 5: growth control rate is above 85%) | Activity level (growth control rate), Conyza japonica ([2]; dose 125 g a.i./ha): 5 (Level 5: growth control rate is above 85%)
COC(=O)C12CCCC1C(c1cc(-c3nn(C)c(C(F)(F)F)cc3=O)c(F)cc1Cl)=NO2 (stereo not shown) [Compound 579] | 5 (Level 5: growth control rate is above 85%) | – | Activity level (growth control rate), Alopecurus japonicus [3]: 4 (Level 4: growth control rate is greater than or equal to 60% and less than 85%)
COC(=O)C12CCCC1C(c1cc(-c3ncc(S(C)(=O)=O)cc3Cl)c(F)cc1Cl)=NO2 (stereo not shown) [Compound 584] | – | 5 (Level 5: growth control rate is above 85%) | Activity level (growth control rate), Conyza japonica ([2]; dose 125 g a.i./ha): 5 (Level 5: growth control rate is above 85%)
COC(=O)C12CCCC1C(c1cc(-c3ncc(C(F)(F)F)c(C)c3Cl)c(F)cc1Cl)=NO2 (stereo not shown) [Compound 586] | – | 5 (Level 5: growth control rate is above 85%) | Activity level (growth control rate), Conyza japonica ([2]; dose 125 g a.i./ha): 5 (Level 5: growth control rate is above 85%)
COC(=O)C12CCCC1C(c1cc(-c3cc(C(F)(F)F)n(C)c3)c(F)cc1Cl)=NO2 (stereo not shown) [Compound 587] | – | 5 (Level 5: growth control rate is above 85%) | –
COC(=O)C12CCCC1C(c1cc(-c3c(Cl)c(C(F)(F)F)n(C)c3Cl)c(F)cc1Cl)=NO2 (stereo not shown) [Compound 588] | – | 5 (Level 5: growth control rate is above 85%) | –
COC(=O)C12CCCC1C(c1cc(-c3cc(C(F)(F)F)nn3C)c(F)cc1Cl)=NO2 (stereo not shown) [Compound 589] | – | 5 (Level 5: growth control rate is above 85%) | –
COC(=O)C12CCCC1C(c1cc(-c3c(Br)c(C(F)(F)F)nn3C)c(F)cc1Cl)=NO2 (stereo not shown) [Compound 590] | – | 5 (Level 5: growth control rate is above 85%) | –
COC(=O)C12CCCC1C(c1cc(NC(=O)C3=C(C(=O)O)CCCC3)c(F)cc1Cl)=NO2 (stereo not shown) [Compound 597] | 5 (Level 5: growth control rate is above 85%) | – | Activity level (growth control rate), Conyza japonica ([2]; dose 15 g a.i./ha): 4 (Level 4: growth control rate is greater than or equal to 60% and less than 85%)
